Legend:
[1] = organism: Mus musculus; experiment: Cytotoxicity against Balb/c mouse T cells assessed as decrease in cell viability at 1 uM after 48 hrs by MTT assay; format: toxicity, cell-based
[2] = Immunosuppressive activity in Balb/c mouse B cells assessed as inhibition of LPS-induced cell proliferation at 100 uM after 48 hrs by MTT assay relative to control; format: functional
[3] = organism: Mus musculus; experiment: Cytotoxicity against Balb/c mouse B cells assessed as decrease in cell viability at 100 uM after 48 hrs by MTT assay; format: toxicity, cell-based
[4] = organism: Mus musculus; experiment: Cytotoxicity against Balb/c mouse B cells assessed as decrease in cell viability at 10 uM after 48 hrs by MTT assay; format: toxicity, cell-based
[5] = Immunosuppressive activity in Balb/c mouse T cells assessed as inhibition of ConA-induced cell proliferation at 100 uM after 48 hrs by MTT assay relative to control; format: functional
[6] = organism: Mus musculus; experiment: Cytotoxicity against Balb/c mouse T cells assessed as decrease in cell viability at 100 uM after 48 hrs by MTT assay; format: toxicity, cell-based
[7] = test system: T-cell; experiment: Immunosuppressive activity in Balb/c mouse T cells assessed as inhibition of ConA-induced cell proliferation after 48 hrs by MTT assay relative to control; format: functional, cell-based
[8] = organism: Mus musculus; experiment: Cytotoxicity against Balb/c mouse T cells assessed as decrease in cell viability at 10 uM after 48 hrs by MTT assay; format: toxicity, cell-based
[9] = Immunosuppressive activity in Balb/c mouse B cells assessed as inhibition of LPS-induced cell proliferation at 1 uM after 48 hrs by MTT assay relative to control; format: functional
[10] = Immunosuppressive activity in Balb/c mouse B cells assessed as inhibition of LPS-induced cell proliferation at 10 uM after 48 hrs by MTT assay relative to control; format: functional
[11] = organism: Mus musculus; experiment: Cytotoxicity against Balb/c mouse B cells assessed as decrease in cell viability at 1 uM after 48 hrs by MTT assay; format: toxicity, cell-based
[12] = test system: B; experiment: Immunosuppressive activity in Balb/c mouse B cells assessed as inhibition of LPS-induced cell proliferation after 48 hrs by MTT assay relative to control; format: functional, cell-based
[13] = Immunostimulatory activity in Balb/c mouse T cells assessed as induction of ConA-induced cell proliferation at 10 uM after 48 hrs by MTT assay relative to control; format: cell-based
[14] = Immunosuppressive activity in Balb/c mouse T cells assessed as inhibition of ConA-induced cell proliferation at 1 uM after 48 hrs by MTT assay relative to control; format: functional
[15] = Immunostimulatory activity in Balb/c mouse B cells assessed as induction of LPS-induced cell proliferation at 1 uM after 48 hrs by MTT assay relative to control; format: cell-based
[16] = Immunosuppressive activity in Balb/c mouse T cells assessed as inhibition of ConA-induced cell proliferation at 10 uM after 48 hrs by MTT assay relative to control; format: functional
[17] = Immunostimulatory activity in Balb/c mouse T cells assessed as induction of ConA-induced cell proliferation at 1 uM after 48 hrs by MTT assay relative to control; format: cell-based

| Structure (SMILES) | Activity [1] | inhibition at 100 µM [2] | Activity [3] | Activity [4] | inhibition at 100 µM [5] | Activity [6] | inhibition [7] | Activity [8] | inhibition at 1 µM [9] | inhibition at 10 µM [10] | Activity [11] | inhibition [12] | Activity [13] | inhibition at 1 µM [14] | Activity [15] | inhibition at 10 µM [16] | Activity [17] |
| --- | --- | --- | --- | --- | --- | --- | --- | --- | --- | --- | --- | --- | --- | --- | --- | --- | --- |
| CC(=O)Oc1cc(C)c2c(c1C)C[C@H]([C@@H](C)C(=O)OCc1cn(-c3ccc(O)cc3C)nn1)CC2 | Non-Toxic | 79.7% | Toxic | Non-Toxic | 54.7% | Toxic | Dose-dependent effect | Non-Toxic | 68.8% | 77.1% | Non-Toxic | Dose-dependent effect | 1.33% | 22.7% | – | – | – |
| CC(=O)Oc1cc(C)c2c(c1C)C[C@H]([C@@H](C)C(=O)OCc1cn(Cc3ccc(Br)cc3)nn1)CC2 | Non-Toxic | 38.7% | Toxic | Toxic | 37.4% | Toxic | Dose-dependent effect | Toxic | – | 34.1% | Non-Toxic | Dose-dependent effect | – | – | 19.71% | 33.9% | 14.15% |
| CC(=O)Oc1cc(C)c2c(c1C)C[C@H]([C@@H](C)C(=O)OCc1cn(-c3ccc(Cl)nc3)nn1)CC2 | Non-Toxic | 33.7% | Non-Toxic | Toxic | 1.85% | Non-Toxic | Dose-dependent effect | Toxic | – | 24% | Non-Toxic | Dose-dependent effect | – | 17.6% | 9.71% | 17.6% | – |
| CC(=O)Oc1cc(C)c2c(c1C)C[C@H]([C@@H](C)C(=O)OCc1cn(-c3ccc4c(c3)OCO4)nn1)CC2 | Non-Toxic | 22.3% | Non-Toxic | Toxic | 32.4% | Non-Toxic | Dose-dependent effect | Toxic | 40.6% | 33.9% | Non-Toxic | Dose-dependent effect | 16.66% | 27.8% | – | – | – |
| CC(=O)Oc1cc(C)c2c(c1C)C[C@H]([C@@H](C)C(=O)OCc1cn(-c3ccccc3C#N)nn1)CC2 | Toxic | 25.1% | Toxic | Toxic | 6.48% | Toxic | Dose-dependent effect | Toxic | 40% | 26.3% | Toxic | Dose-dependent effect | – | – | – | 4.62% | 12.96% |
| CC(=O)Oc1cc(C)c2c(c1C)C[C@H]([C@@H](C)C(=O)OCc1cn(-c3ccc(Cl)c(Cl)c3)nn1)CC2 | Non-Toxic | 49.5% | Toxic | Toxic | 11.8% | Toxic | Dose-dependent effect | Toxic | 39% | 50.5% | Non-Toxic | Dose-dependent effect | – | 31.6% | – | 18.4% | – |
| CC1=C2[C@H]3OC(=O)[C@@H](C)[C@@H]3CC[C@@]2(C)C=CC1=O [SANTONIN] | Non-Toxic | 37.6% | Non-Toxic | Non-Toxic | 6.09% | Non-Toxic | Dose-dependent effect | Non-Toxic | 21.1% | 26.8% | Non-Toxic | Dose-dependent effect | 3.66% | 39.4% | – | – | – |
| CC(=O)Oc1cc(C)c2c(c1C)C[C@H]([C@@H](C)C(=O)OCc1cn(-c3ccccc3F)nn1)CC2 | Non-Toxic | 39.6% | Non-Toxic | Non-Toxic | 5.88% | Non-Toxic | Dose-dependent effect | Non-Toxic | 50.5% | 34.6% | Non-Toxic | Dose-dependent effect | – | 53.7% | – | 11.8% | – |
| CC(=O)Nc1ccc(-n2cc(COC(=O)[C@H](C)[C@@H]3CCc4c(C)cc(OC(C)=O)c(C)c4C3)nn2)cc1 | Toxic | 39% | Toxic | Toxic | 33.8% | Toxic | Dose-dependent effect | Toxic | 24.2% | 31.3% | Toxic | Dose-dependent effect | – | 22.1% | – | 50% | – |
| CC(=O)Oc1cc(C)c2c(c1C)[C@@H]1OC(=O)[C@@H](C)[C@@H]1CC2 | Toxic | 70% | Non-Toxic | Toxic | 75% | Non-Toxic | Dose-dependent effect | Toxic | 61.8% | 44.3% | Toxic | Dose-dependent effect | – | 47.7% | – | 49.2% | – |
| CC(=O)Oc1cc(C)c2c(c1C)C[C@H]([C@@H](C)C(=O)OCc1cn(-c3ccc(CO)cc3)nn1)CC2 | Toxic | 11.5% | Toxic | Toxic | 5.88% | Toxic | Dose-dependent effect | Toxic | 40% | 35.7% | Toxic | Dose-dependent effect | – | 40% | – | 37.5% | – |
| CC(=O)Oc1cc(C)c2c(c1C)C[C@H]([C@@H](C)C(=O)OCc1cn(-c3ccc(Cl)cc3)nn1)CC2 | Toxic | 34.3% | Toxic | Non-Toxic | 13% | Toxic | Dose-dependent effect | Non-Toxic | 34.3% | 25.1% | Toxic | Dose-dependent effect | – | 37% | – | 28.7% | – |
| CC(=O)Oc1cc(C)c2c(c1C)C[C@H]([C@@H](C)C(=O)OCc1cn(-c3ccc(CC#N)cc3)nn1)CC2 | Toxic | 65.6% | Toxic | Toxic | 68.9% | Toxic | Dose-dependent effect | Toxic | 59.5% | 58.8% | Toxic | Dose-dependent effect | – | 21.2% | – | 47% | – |
| CC(=O)Oc1cc(C)c2c(c1C)C[C@H]([C@@H](C)C(=O)OCc1cn(-c3cccc([N+](=O)[O-])c3)nn1)CC2 | Toxic | 24.6% | Non-Toxic | Toxic | 10.2% | Non-Toxic | Dose-dependent effect | Toxic | 29.1% | 26.9% | Toxic | Dose-dependent effect | – | 45.4% | – | 30.6% | – |

— ChEMBL document CHEMBL3853300, “Synthesis of α-santonin derived acetyl santonous acid triazole derivatives and their bioevaluation for T and B-cell proliferation” (Eur J Med Chem, 2016)
